Drawing on patent US9139574B2, “Tumor targeted drug combretastatin A4 derivative” (Nanjing Sanhome Pharmaceutical Co., Ltd., priority 2011, dated 2015), this text covers melting point for 30 compounds.

Structures are written as SMILES.

What is called melting point is the temperature, or range, at which the solid turns liquid. The compound `COc1ccc(-c2[nH]cnc2-c2cc(OC)c(N)c(OC)c2)cc1N` [CN19, 4-(3,5-dimethoxy-4-aminophenyl)-5-(3-amino-4-methoxyphenyl) imidazole] came in with a melting point of 139.7 to 142.1 °C.

`COc1ccc(-c2[nH]cnc2-c2cc(OC)c(Br)c(OC)c2)cc1O` [CN11, 4-(3,5-dimethoxy-4-bromophenyl)-5-(3-hydroxy-4-methoxyphenyl) imidazole] displayed a melting point of 184.7 to 187 °C.

In turn, `COc1ccc(-c2[nH]cnc2-c2cc(OC)c(Br)c(OC)c2)cc1N` [CN13, 4-(3,5-dimethoxy-4-bromophenyl)-5-(3-amino-4-methoxyphenyl)imidazole] registered a melting point of 159.7 to 162 °C.

With `COc1cc(OC)cc(-c2ncoc2-c2ccc(N)cc2)c1` [Compound C112, 4-(3,5-dimethoxyphenyl)-5-(4-aminophenyl)oxazole], the melting point lay in the range of 142 to 146 °C.

The compound `COc1ccc(-c2ocnc2-c2cc(OC)c([N+](=O)[O-])c(OC)c2)cc1O` [CN07, 4-(3,5-dimethoxy-4-nitrophenyl)-5-(3-hydroxy-4-methoxyphenyl)oxazole] returned a melting point of 186.2 to 188.4 °C.

The compound `COc1ccc(-c2[nH]cnc2-c2cc(OC)c(O)c(OC)c2)cc1N` [CN14, 4-(3,5-dimethoxy-4-hydroxyphenyl)-5-(3-amino-4-methoxyphenyl)imidazole] came in with a melting point of 148.5 to 149.9 °C.

As for `COc1cc(OC)cc(-c2nc[nH]c2-c2ccc(OC)c(O)c2)c1.O=P([O-])([O-])O.[Na+].[Na+]`, the melting point was in the range of 169.7 to 172.1 °C.

For the compound `COc1cc(OC)cc(-c2ncn(-c3cc(OC)c(OC)c(OC)c3)c2-c2ccc(OC)c(F)c2)c1` [Compound C091, 5-(3-fluoro-4-methoxyphenyl)-4-(3,5-dimethoxyphenyl)-1-(3,4,5-trimethoxyphenyl)imidazole], the melting point lay in the range of 157 to 158.4 °C.

In turn, `COc1ccc(-c2ocnc2-c2cc(OC)c(Cl)c(OC)c2)cc1N` [CN21, 4-(3,5-dimethoxy-4-chlorophenyl)-5-(3-amino-4-methoxyphenyl)oxazole] returned a melting point of 146.2 to 148.1 °C.

Compound `COc1ccc(-c2[nH]cnc2-c2cc(OC)c([N+](=O)[O-])c(OC)c2)cc1O` [CN16, 4-(3,5-dimethoxy-4-nitrophenyl)-5-(3-hydroxy-4-methoxyphenyl)imidazole] registered a melting point of 147.7 to 149 °C.

Compound `COc1cc(-c2ncn(-c3cc(OC)c(OC)c(OC)c3)c2-c2cc(OC)c(OC)c(OC)c2)cc(OC)c1OC` [Compound C107, 5-(3,4,5-trimethoxyphenyl)-4-(3,4,5-trimethoxyphenyl)-1-(3,4,5-trimethoxyphenyl)imidazole] showed a melting point of 168.8 to 170.9 °C.

`COc1cc(OC)cc(-c2ncoc2-c2cc(N)c(OC)cc2N)c1` [Compound C119, 4-(3,5-dimethoxyphenyl)-5-(2,5-diamino-4-methoxyphenyl)oxazole]: the melting point was 149.9 to 151.6 °C.

`COc1ccc(-c2ocnc2-c2cc(OC)c(OC(F)(F)F)c(OC)c2)cc1N` [CN23, 4-(3,5-dimethoxy-4-trifluoromethoxyphenyl)-5-(3-amino-4-methoxyphenyl)oxazole]: the melting point fell in the range of 167.9 to 170.2 °C.

`COc1ccc(-c2ncn(-c3cc(OC)c(OC)c(OC)c3)c2-c2cc(OC)c(OC)c(OC)c2)cc1OC` [Compound C104, 5-(3,4,5-trimethoxyphenyl)-4-(3,4-dimethoxyphenyl)-1-(3,4,5-trimethoxyphenyl)imidazole] had a melting point of 159.5 to 161 °C.

In the case of `COc1cc(OC)cc(-c2ncoc2-c2ccc(N(C)C)c(N)c2)c1` [Compound C113, 4-(3,5-dimethoxyphenyl)-5-(3-amino-4-dimethylaminophenyl)oxazole], the melting point was 111.7 to 113.5 °C.

Consider `COc1ccc(-c2ocnc2-c2cc(OC)c(Br)c(OC)c2)cc1O` [CN02, 4-(3,5-dimethoxy-4-bromophenyl)-5-(3-hydroxy-4-methoxyphenyl)oxazole], for which the melting point lay in the range of 184.7 to 187 °C.

In the case of `COc1cc(OC)cc(-c2ncoc2-c2ccc3c(c2)NCCO3)c1` [Compound C255, 4-(3,5-dimethoxyphenyl)-5-(6-benzomorpholinyl)oxazole], the melting point lay within 175 to 178 °C.

As for `COc1cc(OC)cc(-c2ncoc2-c2ccc(NC(C)=O)cc2)c1` [Compound C109, 5-(4-acetamidophenyl)-4-(3,5-dimethoxyphenyl)oxazole], the melting point was in the range of 140.1 to 143.2 °C.

In the case of `COc1ccc(-c2[nH]cnc2-c2cc(OC)c(N)c(OC)c2)cc1F` [CN10, 4-(3,5-dimethoxy-4-aminophenyl)-5-(3-fluoro-4-methoxyphenyl) imidazole], the melting point lay in the range of 100.8 to 102.6 °C.

For the compound `COc1ccc(-c2ocnc2-c2cc(OC)c(O)c(OC)c2)cc1N` [CN05, 4-(3,5-dimethoxy-4-hydroxyphenyl)-5-(3-amino-4-methoxyphenyl)oxazole], the melting point fell in the range of 101.2 to 102 °C.

In the case of `COc1ccc(-c2ocnc2-c2cc(OC)c(O)c(OC)c2)cc1F` [CN03, 4-(3,5-dimethoxy-4-hydroxyphenyl)-5-(3-fluoro-4-methoxyphenyl)oxazole], the melting point is 161.3 to 162.8 °C.

As for `COc1ccc(-c2ocnc2-c2cc(OC)c(O)c(OC)c2)cc1O` [CN06, 4-(3,5-dimethoxy-4-hydroxyphenyl)-5-(3-hydroxy-4-methoxyphenyl)oxazole], the melting point lay within 144.3 to 145.5 °C.

On to `COc1ccc(-c2ocnc2-c2cc(OC)c(Br)c(OC)c2)cc1N` [CN04, 4-(3,5-dimethoxy-4-bromophenyl)-5-(3-amino-4-methoxyphenyl)oxazole], for which the melting point fell in the range of 179.8 to 183.9 °C.

For `COc1ccc(-c2[nH]cnc2-c2cc(OC)c(N)c(OC)c2)cc1O` [CN17, 4-(3,5-dimethoxy-4-aminophenyl)-5-(3-hydroxy-4-methoxyphenyl) imidazole], the melting point was 141.8 to 143.7 °C.

Consider `COc1ccc(-c2ocnc2-c2cc(OC)c(F)c(OC)c2)cc1N` [CN20, 4-(3,5-dimethoxy-4-fluorophenyl)-5-(3-amino-4-methoxyphenyl)oxazole], for which the melting point was 139.7 to 142.1 °C.

The compound `COc1cc(-c2ncn(-c3ccc(C(F)(F)F)cc3)c2-c2ccc(N(C)C)cc2)cc(OC)c1OC` [Compound C092, 5-(4-dimethylaminophenyl)-4-(3,4,5-trimethoxyphenyl)-1-(4-trifluoromethylphenyl)imidazole] showed a melting point of 215 to 217 °C.

Regarding `COc1ccc(-c2ocnc2-c2cc(OC)c(N)c(OC)c2)cc1F` [CN01, 4-(3,5-dimethoxy-4-aminophenyl)-5-(3-fluoro-4-methoxyphenyl)oxazole], the melting point was in the range of 100.8 to 102.6 °C.

As for `COc1ccc(-c2[nH]cnc2-c2cc(OC)c(O)c(OC)c2)cc1O` [CN15, 4-(3,5-dimethoxy-4-hydroxyphenyl)-5-(3-hydroxy-4-methoxyphenyl)imidazole], the melting point lay within 171.5 to 173 °C.

In turn, `COc1ccc(-c2[nH]cnc2-c2cc(OC)c(O)c(OC)c2)cc1F` [CN12, 4-(3,5-dimethoxy-4-hydroxyphenyl)-5-(3-fluoro-4-methoxyphenyl) imidazole] came in with a melting point of 124.7 to 127 °C.

Take `COc1ccc(-c2ocnc2-c2cc(OC)c(N)c(OC)c2)cc1O` [CN08, 4-(3,5-dimethoxy-4-aminophenyl)-5-(3-hydroxy-4-methoxyphenyl)oxazole]: the melting point lay in the range of 126 to 129.6 °C.
